Among the data in ChEMBL document CHEMBL5291721, “A preclinical secondary pharmacology resource illuminates target-adverse drug reaction associations of marketed drugs” (Nat Commun, 2023) are AC50 values, retold here.

Experiment [1] addresses Acetylcholinesterase (Homo sapiens, UniProt P22303). Type of experiment: functional.
Experiment [2] has as its target T1, Alpha-1A adrenergic receptor (Homo sapiens, UniProt P35348).
T1 sequence (P35348 whole entry): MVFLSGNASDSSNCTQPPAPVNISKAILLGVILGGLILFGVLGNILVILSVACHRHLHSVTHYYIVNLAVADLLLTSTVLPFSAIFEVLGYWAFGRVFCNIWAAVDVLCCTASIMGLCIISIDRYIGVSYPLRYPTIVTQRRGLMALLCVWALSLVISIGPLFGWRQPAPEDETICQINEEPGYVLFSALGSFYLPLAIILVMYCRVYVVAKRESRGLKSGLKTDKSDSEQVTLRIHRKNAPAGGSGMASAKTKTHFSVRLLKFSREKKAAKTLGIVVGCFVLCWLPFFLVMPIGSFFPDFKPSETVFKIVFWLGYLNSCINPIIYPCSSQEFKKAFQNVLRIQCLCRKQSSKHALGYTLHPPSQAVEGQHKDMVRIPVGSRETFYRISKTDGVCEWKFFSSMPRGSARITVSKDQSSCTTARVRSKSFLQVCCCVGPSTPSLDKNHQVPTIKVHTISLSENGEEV
In kind it is functional, cell-based.

For experiment [3], the target named is T2, Alpha-2A adrenergic receptor (Homo sapiens, UniProt P08913).
T2 sequence (P08913 whole entry): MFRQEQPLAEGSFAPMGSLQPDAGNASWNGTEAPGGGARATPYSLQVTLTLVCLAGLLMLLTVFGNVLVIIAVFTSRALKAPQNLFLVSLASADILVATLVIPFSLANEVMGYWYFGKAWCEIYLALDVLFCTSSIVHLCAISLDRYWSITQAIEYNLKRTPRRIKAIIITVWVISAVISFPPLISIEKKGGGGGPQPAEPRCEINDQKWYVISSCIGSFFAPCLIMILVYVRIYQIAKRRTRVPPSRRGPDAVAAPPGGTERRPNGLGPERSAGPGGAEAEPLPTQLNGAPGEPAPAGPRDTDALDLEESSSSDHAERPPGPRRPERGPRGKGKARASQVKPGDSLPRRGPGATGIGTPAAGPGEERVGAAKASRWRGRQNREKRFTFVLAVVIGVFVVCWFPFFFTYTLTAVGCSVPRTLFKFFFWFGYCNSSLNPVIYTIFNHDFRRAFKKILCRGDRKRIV

Experiment [4] has as its target T3, Muscarinic acetylcholine receptor M2 (Homo sapiens, UniProt P08172).
T3 sequence (P08172 whole entry): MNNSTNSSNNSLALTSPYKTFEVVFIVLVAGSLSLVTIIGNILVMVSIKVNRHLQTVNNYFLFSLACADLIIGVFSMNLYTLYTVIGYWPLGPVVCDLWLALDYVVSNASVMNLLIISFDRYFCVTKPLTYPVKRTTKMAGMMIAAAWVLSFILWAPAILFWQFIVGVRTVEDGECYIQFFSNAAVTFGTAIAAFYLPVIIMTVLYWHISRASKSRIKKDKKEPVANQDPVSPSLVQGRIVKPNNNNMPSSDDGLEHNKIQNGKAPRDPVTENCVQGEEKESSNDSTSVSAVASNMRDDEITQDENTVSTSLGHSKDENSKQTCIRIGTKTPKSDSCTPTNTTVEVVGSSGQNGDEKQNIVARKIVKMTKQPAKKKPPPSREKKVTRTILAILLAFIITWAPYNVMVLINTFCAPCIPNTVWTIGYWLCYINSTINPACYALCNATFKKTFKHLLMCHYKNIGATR

Experiment [5] concerns the target D(1A) dopamine receptor (Homo sapiens, UniProt P21728).
The target of experiment [6] is Prothrombin (Homo sapiens, UniProt P00734). In kind it is functional.
The target in experiment [7] is Histamine H3 receptor (Homo sapiens, UniProt Q9Y5N1).
Histamine H3 receptor, sequence (Q9Y5N1 whole entry): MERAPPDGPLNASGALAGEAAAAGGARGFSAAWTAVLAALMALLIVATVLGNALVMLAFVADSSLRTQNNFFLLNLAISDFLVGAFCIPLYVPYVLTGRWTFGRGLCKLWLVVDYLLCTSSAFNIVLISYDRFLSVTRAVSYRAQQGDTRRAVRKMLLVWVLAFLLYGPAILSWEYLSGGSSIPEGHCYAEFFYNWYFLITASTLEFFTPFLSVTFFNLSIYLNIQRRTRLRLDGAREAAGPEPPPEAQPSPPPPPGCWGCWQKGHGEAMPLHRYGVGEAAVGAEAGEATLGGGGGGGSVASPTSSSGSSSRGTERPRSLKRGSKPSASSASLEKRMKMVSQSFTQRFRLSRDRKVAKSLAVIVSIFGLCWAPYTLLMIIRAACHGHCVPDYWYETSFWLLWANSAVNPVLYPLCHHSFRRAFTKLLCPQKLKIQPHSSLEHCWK
The target of experiment [8] is Voltage-gated inwardly rectifying potassium channel KCNH2 (Homo sapiens, UniProt Q12809). Type of experiment: functional. The note with it: read-out: AC50.
Voltage-gated inwardly rectifying potassium channel KCNH2, sequence (Q12809 whole entry): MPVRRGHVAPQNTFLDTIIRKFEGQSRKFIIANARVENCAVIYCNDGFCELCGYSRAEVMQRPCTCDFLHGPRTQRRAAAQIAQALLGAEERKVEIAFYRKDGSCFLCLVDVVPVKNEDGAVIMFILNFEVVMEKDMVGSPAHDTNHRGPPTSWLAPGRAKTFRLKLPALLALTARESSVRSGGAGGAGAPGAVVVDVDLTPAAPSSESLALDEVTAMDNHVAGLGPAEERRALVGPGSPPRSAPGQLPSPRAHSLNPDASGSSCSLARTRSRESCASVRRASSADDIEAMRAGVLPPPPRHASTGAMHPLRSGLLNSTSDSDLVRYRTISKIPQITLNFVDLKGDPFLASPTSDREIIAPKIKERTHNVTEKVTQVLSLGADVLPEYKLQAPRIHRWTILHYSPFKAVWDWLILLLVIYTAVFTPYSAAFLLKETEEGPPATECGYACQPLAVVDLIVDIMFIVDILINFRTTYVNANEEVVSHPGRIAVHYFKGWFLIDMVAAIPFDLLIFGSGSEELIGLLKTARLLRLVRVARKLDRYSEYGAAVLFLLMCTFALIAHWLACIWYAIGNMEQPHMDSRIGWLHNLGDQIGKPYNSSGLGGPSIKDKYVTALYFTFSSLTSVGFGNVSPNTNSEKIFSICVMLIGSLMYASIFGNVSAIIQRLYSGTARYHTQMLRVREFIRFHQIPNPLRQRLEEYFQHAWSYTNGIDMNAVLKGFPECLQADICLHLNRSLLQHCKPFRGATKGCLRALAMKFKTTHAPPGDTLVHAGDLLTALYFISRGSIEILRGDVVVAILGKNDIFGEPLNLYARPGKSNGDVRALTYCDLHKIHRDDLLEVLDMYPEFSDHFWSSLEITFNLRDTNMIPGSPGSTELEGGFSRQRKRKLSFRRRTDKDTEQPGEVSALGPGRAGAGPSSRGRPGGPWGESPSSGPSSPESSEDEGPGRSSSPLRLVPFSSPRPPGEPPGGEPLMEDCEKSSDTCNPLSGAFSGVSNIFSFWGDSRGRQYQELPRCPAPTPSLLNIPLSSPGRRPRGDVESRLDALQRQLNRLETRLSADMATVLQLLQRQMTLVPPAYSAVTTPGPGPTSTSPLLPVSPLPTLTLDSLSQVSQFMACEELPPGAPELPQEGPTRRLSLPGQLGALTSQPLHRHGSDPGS
Experiment [9] concerns the target Mu-type opioid receptor (Homo sapiens, UniProt P35372).
Experiment [10] concerns the target cGMP-inhibited 3',5'-cyclic phosphodiesterase 3A (Homo sapiens, UniProt Q14432). In kind it is functional.
Experiment [11] addresses Prostaglandin G/H synthase 1 (Homo sapiens, UniProt P23219). Type of experiment: functional.
The target in experiment [12] is Sodium-dependent dopamine transporter (Homo sapiens, UniProt Q01959).
In experiment [13] the target is Sodium-dependent serotonin transporter (Homo sapiens, UniProt P31645).
Sodium-dependent serotonin transporter, sequence (P31645 whole entry): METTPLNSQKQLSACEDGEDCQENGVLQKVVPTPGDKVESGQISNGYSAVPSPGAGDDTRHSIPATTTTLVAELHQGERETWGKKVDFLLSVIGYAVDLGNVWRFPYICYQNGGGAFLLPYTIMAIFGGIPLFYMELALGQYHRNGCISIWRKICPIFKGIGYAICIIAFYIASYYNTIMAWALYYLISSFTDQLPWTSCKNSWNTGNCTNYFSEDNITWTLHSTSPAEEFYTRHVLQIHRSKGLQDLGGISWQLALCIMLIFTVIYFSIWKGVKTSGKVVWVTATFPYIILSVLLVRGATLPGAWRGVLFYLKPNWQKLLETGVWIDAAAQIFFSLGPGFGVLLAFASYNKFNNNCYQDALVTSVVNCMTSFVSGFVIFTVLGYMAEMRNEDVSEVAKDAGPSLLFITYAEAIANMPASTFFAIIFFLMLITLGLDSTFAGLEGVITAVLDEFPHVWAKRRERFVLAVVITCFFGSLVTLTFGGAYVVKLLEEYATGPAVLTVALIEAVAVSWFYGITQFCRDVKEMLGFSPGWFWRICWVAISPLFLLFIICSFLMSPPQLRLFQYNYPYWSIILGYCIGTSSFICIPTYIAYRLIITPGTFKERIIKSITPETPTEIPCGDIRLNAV
The target in experiment [14] is T4, Thromboxane A2 receptor (Homo sapiens, UniProt P21731).
T4 sequence (P21731 whole entry): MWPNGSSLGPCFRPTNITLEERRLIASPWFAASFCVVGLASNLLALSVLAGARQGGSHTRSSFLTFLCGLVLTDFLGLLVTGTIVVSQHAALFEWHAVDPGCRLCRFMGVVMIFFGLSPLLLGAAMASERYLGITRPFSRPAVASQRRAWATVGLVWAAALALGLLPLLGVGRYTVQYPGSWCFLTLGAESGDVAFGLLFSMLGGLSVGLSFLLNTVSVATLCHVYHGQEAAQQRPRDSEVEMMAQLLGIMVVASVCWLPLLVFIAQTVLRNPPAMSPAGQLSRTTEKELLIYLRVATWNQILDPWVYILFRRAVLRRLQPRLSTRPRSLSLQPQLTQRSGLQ
In kind it is functional, cell-based.

Experiment [15] concerns the target T4, Thromboxane A2 receptor. In kind it is functional, cell-based. The source holds these as a separate data set.
Also: assay procedure not described here.

D(1A) dopamine receptor, sequence (P21728 whole entry): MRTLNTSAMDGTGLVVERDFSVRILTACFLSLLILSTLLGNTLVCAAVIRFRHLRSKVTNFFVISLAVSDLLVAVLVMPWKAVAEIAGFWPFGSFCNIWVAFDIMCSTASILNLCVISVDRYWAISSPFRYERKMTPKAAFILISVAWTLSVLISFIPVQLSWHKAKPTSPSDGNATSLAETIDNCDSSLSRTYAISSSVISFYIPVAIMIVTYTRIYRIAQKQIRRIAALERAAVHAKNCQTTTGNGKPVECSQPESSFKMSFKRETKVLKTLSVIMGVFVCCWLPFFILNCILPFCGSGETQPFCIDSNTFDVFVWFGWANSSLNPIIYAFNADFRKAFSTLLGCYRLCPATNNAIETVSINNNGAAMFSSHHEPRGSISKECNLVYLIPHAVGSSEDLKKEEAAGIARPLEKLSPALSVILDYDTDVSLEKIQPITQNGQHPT
cGMP-inhibited 3',5'-cyclic phosphodiesterase 3A, sequence (Q14432 whole entry): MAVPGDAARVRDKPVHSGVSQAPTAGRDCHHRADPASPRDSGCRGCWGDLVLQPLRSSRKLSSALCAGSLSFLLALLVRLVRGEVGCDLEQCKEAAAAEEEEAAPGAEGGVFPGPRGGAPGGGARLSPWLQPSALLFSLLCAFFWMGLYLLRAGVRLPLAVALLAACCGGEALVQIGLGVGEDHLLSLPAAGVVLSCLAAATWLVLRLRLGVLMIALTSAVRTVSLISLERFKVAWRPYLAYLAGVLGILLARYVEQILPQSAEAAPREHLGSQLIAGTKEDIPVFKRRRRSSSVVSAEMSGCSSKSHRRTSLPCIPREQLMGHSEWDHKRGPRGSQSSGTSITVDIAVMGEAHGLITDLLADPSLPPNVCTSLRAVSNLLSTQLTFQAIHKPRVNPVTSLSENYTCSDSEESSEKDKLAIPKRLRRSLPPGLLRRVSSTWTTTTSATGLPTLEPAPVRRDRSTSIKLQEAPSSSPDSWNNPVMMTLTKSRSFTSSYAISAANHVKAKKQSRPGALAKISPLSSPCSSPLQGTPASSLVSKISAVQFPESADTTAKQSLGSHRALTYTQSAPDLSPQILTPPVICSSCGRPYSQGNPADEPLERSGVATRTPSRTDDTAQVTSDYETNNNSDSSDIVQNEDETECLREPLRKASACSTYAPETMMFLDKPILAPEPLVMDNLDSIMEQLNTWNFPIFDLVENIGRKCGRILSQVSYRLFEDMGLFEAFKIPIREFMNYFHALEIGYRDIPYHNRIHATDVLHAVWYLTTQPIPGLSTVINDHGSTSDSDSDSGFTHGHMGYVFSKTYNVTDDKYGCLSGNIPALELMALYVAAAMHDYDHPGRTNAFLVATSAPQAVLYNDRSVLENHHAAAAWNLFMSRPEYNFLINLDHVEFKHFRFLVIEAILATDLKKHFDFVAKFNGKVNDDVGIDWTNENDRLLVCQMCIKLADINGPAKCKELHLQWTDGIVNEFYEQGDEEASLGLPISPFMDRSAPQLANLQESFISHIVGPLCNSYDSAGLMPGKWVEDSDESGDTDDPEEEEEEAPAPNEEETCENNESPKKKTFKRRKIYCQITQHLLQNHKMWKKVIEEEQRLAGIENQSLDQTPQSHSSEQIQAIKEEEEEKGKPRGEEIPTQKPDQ
Prostaglandin G/H synthase 1, sequence (P23219 whole entry): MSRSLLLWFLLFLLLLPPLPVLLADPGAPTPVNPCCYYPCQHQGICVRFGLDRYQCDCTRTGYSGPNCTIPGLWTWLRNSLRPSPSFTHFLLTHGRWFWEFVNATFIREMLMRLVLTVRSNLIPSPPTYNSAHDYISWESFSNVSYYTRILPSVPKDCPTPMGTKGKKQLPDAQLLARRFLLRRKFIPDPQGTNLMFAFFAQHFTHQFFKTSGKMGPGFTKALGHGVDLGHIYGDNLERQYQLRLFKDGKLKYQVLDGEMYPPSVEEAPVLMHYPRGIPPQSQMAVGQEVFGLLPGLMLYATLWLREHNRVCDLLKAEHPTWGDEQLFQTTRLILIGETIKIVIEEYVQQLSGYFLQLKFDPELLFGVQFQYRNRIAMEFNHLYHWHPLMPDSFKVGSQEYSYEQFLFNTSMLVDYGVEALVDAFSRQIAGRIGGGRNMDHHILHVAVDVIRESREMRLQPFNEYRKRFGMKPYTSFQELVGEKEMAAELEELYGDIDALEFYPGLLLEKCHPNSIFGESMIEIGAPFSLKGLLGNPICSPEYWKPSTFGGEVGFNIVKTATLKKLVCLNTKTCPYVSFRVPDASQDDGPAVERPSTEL
Acetylcholinesterase, sequence (P22303 whole entry): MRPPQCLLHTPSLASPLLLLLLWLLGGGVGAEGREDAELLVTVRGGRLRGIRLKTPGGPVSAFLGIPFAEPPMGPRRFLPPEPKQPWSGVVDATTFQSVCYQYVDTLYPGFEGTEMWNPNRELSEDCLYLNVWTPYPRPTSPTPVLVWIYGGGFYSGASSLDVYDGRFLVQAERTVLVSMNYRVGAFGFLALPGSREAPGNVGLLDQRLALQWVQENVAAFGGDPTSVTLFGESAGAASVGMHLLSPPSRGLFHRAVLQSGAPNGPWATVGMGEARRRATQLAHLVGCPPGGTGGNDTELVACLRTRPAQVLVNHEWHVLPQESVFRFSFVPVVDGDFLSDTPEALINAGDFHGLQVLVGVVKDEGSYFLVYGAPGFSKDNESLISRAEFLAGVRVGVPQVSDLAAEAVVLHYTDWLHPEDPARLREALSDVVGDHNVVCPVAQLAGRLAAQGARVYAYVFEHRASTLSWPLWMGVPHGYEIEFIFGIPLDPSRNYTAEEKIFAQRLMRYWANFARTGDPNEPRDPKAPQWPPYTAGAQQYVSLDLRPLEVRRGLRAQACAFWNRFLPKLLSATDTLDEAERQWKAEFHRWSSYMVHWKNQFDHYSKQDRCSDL

`c1ccc2c(CC3=NCCN3)cccc2c1` [NAPHAZOLINE]: the AC50 (usually the concentration at which the activity in the assay is half-maximal) in experiment [1] was greater than 30 µM; in [2], 0.0014 µM; in experiment [3] it was 0.022 µM; in experiment [4] it was greater than 30 µM; in experiment [5] it was greater than 30 µM; in experiment [6] it was greater than 30 µM. Moreover, the AC50 in [7] is greater than 30 µM; in [8] it was greater than 30 µM; in [9], 8.37 µM; in experiment [10], greater than 30 µM; in experiment [11], greater than 30 µM; in [12], greater than 30 µM. The AC50 in experiment [13], in [14] and in experiment [15] was greater than 30 µM throughout.
Take `N[C@@H](Cc1c[nH]c2ccc(O)cc12)C(=O)O` [OXITRIPTAN]: the AC50 in experiment [1], in [2], in experiment [3], in [4], in experiment [5] and in [6] was greater than 30 µM each time. Besides, the AC50 was greater than 30 µM in experiment [7]; greater than 30 µM in experiment [8]; greater than 30 µM in [9]; greater than 30 µM in experiment [10]; greater than 3 µM in experiment [11]; greater than 30 µM in experiment [12]. Further, the AC50 was 15.5 µM in [13], greater than 30 µM in experiment [14] and greater than 30 µM in experiment [15].
`C1CNCCN1` [PIPERAZINE]: the AC50 in experiment [1], in experiment [2], in experiment [3], in [4], in experiment [5] and in [6] was greater than 30 µM each time. In addition, the AC50 in experiment [7], in experiment [8], in experiment [9], in experiment [10], in [11] and in experiment [12] was greater than 30 µM each time. The AC50 in experiment [13], in experiment [14] and in experiment [15] was greater than 30 µM throughout.
Turning to `CCCC(=O)O[C@H]1[C@H](C)O[C@@H](O[C@H]2[C@H](N(C)C)[C@@H](O)[C@H](O[C@H]3[C@@H](CC=O)C[C@@H](C)[C@@H](O)/C=C/C=C/C[C@@H](C)OC(=O)C[C@@H](O)[C@@H]3OC)O[C@@H]2C)C[C@@]1(C)OC(=O)CC` [ROKITAMYCIN], the AC50 in experiment [1], in [2], in [3], in experiment [4], in [5] and in [6] was greater than 30 µM throughout. The AC50 in experiment [7] was greater than 30 µM; in [8], greater than 30 µM; in experiment [9], greater than 30 µM; in experiment [10], greater than 10 µM; in experiment [11], 8.78 µM; in experiment [12], greater than 30 µM. Besides, the AC50 in [13], in [14] and in [15] was greater than 30 µM each time.
For `CCCCCCCCCCCCCCCCCC(=O)NCCCC[C@H](NC(=O)CC[C@@H](NC(=O)[C@H](C)NC(=O)[C@@H](C)O[C@H]1[C@H](O)[C@@H](CO)OC(O)[C@@H]1NC(C)=O)C(N)=O)C(=O)O` (stereo not given in full) [ROMURTIDE], the AC50 in experiment [1], in [2], in experiment [3], in [4], in experiment [5] and in [6] was greater than 30 µM in each case. Moreover, the AC50 is greater than 30 µM in experiment [7]; 26 µM in [8]; greater than 30 µM in experiment [9]; greater than 30 µM in experiment [10]; 5.94 µM in experiment [11]; greater than 30 µM in experiment [12]. Moreover, the AC50 in [13] is greater than 30 µM; in [14], 15.9 µM; in experiment [15] it was greater than 3 µM.
For `CCOC(=O)[C@H](CCc1ccccc1)N[C@H]1CS[C@H](c2cccs2)CN(CC(=O)O)C1=O` [TEMOCAPRIL], the AC50 in [1], in experiment [2], in experiment [3], in experiment [4], in [5] and in experiment [6] was greater than 30 µM throughout. For the same compound, the AC50 in experiment [7], in [8], in experiment [9], in experiment [10], in experiment [11] and in experiment [12] was greater than 30 µM throughout. The AC50 in experiment [13], in experiment [14] and in experiment [15] was greater than 30 µM in each case.
Take `COc1cc([C@@H]2c3cc4c(cc3[C@@H](O[C@@H]3O[C@@H]5CO[C@@H](c6cccs6)O[C@H]5[C@H](O)[C@H]3O)[C@H]3COC(=O)[C@H]23)OCO4)cc(OC)c1O` [TENIPOSIDE]: the AC50 in experiment [1], in experiment [2], in [3], in [4], in [5] and in [6] was greater than 30 µM each time. For the same compound, the AC50 in experiment [7] is greater than 30 µM; in experiment [8] it was greater than 30 µM; in [9], greater than 30 µM; in [10], greater than 3 µM; in experiment [11], greater than 30 µM; in experiment [12], greater than 30 µM. Moreover, the AC50 in [13], in [14] and in [15] was greater than 30 µM in each case.
`CCSc1ccc2c(c1)N(CCCN1CCN(C)CC1)c1ccccc1S2` [THIETHYLPERAZINE]: the AC50 is greater than 30 µM in experiment [1]; 24.7 µM in [2]; 0.211 µM in experiment [3]; 2.24 µM in experiment [4]; 0.0079 µM in [5]; greater than 30 µM in [6]. The AC50 in [7] was 13 µM; in experiment [8], 1.2 µM; in experiment [9], 2.69 µM; in experiment [10] it was greater than 30 µM; in [11] it was greater than 0.3 µM; in [12] it was 3.87 µM. The concentration at half-maximal activity (AC50) in experiment [13] was 4.88 µM; in experiment [14], greater than 30 µM; in [15] it was 3.98 µM.
